Data reported in patent US12351565B2, “Aromatic compound and preparation method therefor and use thereof” (SHANGHAI JIANHE PHARMACEUTICAL & TECHNOLOGY CO. LTD., priority 2018, dated 2025).

Assays:
hERG potassium channel = target: T1, hERG potassium channel (Homo sapiens, UniProt Q12809); assay: hERG potassium channel inhibition experiment (automatic patch clamp, CHO-hERG cells); type: cell-based; settings: Qpatch, highest tested concentration 40 μM, read-out: IC50, blocking effect on the hERG potassium current
T1 construct: expressed in transfected cells
Protocol: Fully automatic patch clamps were used to test the blocking effect of the compounds of the present invention on the hERG potassium current on a stable cell line transfected with hERG potassium channels.
CHO-hERG cells were cultured in 175 cm^2 culture flask. When the cell grew to 60-80% confluence, the culture medium was removed. The cells were washed with 7 ml PBS (Phosphate Buffered Saline) once, and then 3 ml Detachin was added to digest.
After the digestion was completed, 7 ml culture medium was added to neutralize. The mixture was centrifuged, and after the supernatant was removed, 5 ml culture medium was added to resuspend to ensure the cell density was 2×10^6-5×10^6/ml.
Single-cell high-impedance sealing and whole-cell mode formation were all automatically completed by using the Qpatch instrument. After the recording mode was obtained, the cell was clamped at −80 millivolts. Before +40 millivolt depolarization stimulation for 5 seconds was given, −50 millivolt pre-voltage for 50 millisecond was first given, then repolarized to −50 millivolt for 5 seconds, and then returned to −80 millivolt. This voltage stimulus was applied every 15 seconds. After recording for 2 min, extracellular fluid was given, and recording was conducted for 5 min, and then the dosing process started. The compound concentration started from the lowest test concentration, and each test concentration was given for 2.5 min. […] At least 3 cells per concentration (n≥3) were tested.
20 mM compound mother liquor was diluted with extracellular fluid. 5 μL of 20 mM compound mother liquor was taken and added into 2495 μL extracellular fluid, so that it was diluted 500 times to 40 μM, and was then serially diluted 3 times in an extracellular fluid containing 0.2% DMSO to obtain the final concentration to be tested.
The highest tested concentration was 40 μM, and the concentrations were in order as follows: 40, 13.33, 4.44, 1.48, 0.49, 0.16 μM, totally 6 concentrations.
Experimental data were analyzed by XLFit software.

[1] = Distribution in mouse brain tissue; type: in vivo, C57 mice
Protocol: Healthy male C57 mice were randomly divided into groups with 3 mice in each group, and the test compound was administrated intragastrically. See Table 10 below for specific arrangements:
(§1) Each test compound was dissolved in physiological saline to prepare a certain concentration of solution for administration.
(§2) One day before administration, the mice were fasted and allowed to drink freely for 12-14 h. The mice were fed 4 h after administration.
After the animals were bled, the brain tissue was collected. After washing, 50% ice methanol was added for homogenate at 1:4 (m/v). The collection time points was 10 min, 15 min, 30 min, 1 h, 2 h after administration of the test substance; 30.0 μL of tissue sample was taken (the sample was taken out from the refrigerator at −80° C., vortexed for 30 seconds after natural melting at room temperature) and added into a 1.5 mL centrifuge tube. 300.0 μL internal standard solution (30 ng/mL […] acetonitrile solution) was added, the mixture was vortex for 60 seconds and then centrifuged for 3 minutes (centrifugal force was 12000 rpm); 75 μL of the supernatant was taken and transferred to 96-well injection plate loaded with equal volume of water, shaken and mixed well, and subjected to LC-MS/MS analysis, wherein injection volume was 10 μL.

[2] = In vivo pharmacokinetic experiment in rats; settings: SD rats
Protocol: Healthy male SD rats were randomly divided into groups with 3 rats in each group, and the test compounds were administrated intragastrically or by intravenous injection. See Table 8 below for specific arrangements:
as §1
(§3) One day before administration, the rats were fasted and allowed to drink freely for 12-14 h. The rats were fed 4 h after administration. 0.030 mL of blood was took from each animal each time through the orbit, and anticoagulated with EDTAK2 anticoagulation. The collection time points were as follows: in PO group, 5 min, 10 min, 15 min, 30 min, 1 h, 2 h, 4 h, 6 h, 8 h, 24 h after administration of test substance; in IV group, 2 min, 5 min, 15 min, 30 min, 1 h, 2 h, 4 h, 6 h, 8 h, 24 h after administration of test substance. After blood samples were collected, they were placed on ice and centrifuged to separate the plasma within 30 minutes (centrifugation conditions: 5000 rpm, 10 minutes, 4° C.). The sample were stored at −80° C. before analysis.

[3] = In vivo pharmacokinetic experiment in mice; settings: C57 mice
Protocol: Healthy male C57 mice were randomly divided into groups with 3 mice in each group, and the test compounds were administrated intragastrically or by intravenous injection. See Table 6 below for specific arrangements:
as §1, §2
as §3, with “0.030” for “One day before administration, the rats were fasted and allowed to drink freely for 12-14 h. The rats were fed 4 h after administration. 0.030”, “EDTAK2.” for “EDTAK2 anticoagulation.”, “5” for “5 min, 10”

[4] = male, rat, iv, 5 mg/kg i.v., plasma
[5] = male, rat, po, 20 mg/kg p.o., plasma
[6] = male, mouse, iv, 5 mg/kg i.v., plasma
[7] = male, mouse, po, 20 mg/kg p.o., plasma

T1 sequence (Q12809 whole entry): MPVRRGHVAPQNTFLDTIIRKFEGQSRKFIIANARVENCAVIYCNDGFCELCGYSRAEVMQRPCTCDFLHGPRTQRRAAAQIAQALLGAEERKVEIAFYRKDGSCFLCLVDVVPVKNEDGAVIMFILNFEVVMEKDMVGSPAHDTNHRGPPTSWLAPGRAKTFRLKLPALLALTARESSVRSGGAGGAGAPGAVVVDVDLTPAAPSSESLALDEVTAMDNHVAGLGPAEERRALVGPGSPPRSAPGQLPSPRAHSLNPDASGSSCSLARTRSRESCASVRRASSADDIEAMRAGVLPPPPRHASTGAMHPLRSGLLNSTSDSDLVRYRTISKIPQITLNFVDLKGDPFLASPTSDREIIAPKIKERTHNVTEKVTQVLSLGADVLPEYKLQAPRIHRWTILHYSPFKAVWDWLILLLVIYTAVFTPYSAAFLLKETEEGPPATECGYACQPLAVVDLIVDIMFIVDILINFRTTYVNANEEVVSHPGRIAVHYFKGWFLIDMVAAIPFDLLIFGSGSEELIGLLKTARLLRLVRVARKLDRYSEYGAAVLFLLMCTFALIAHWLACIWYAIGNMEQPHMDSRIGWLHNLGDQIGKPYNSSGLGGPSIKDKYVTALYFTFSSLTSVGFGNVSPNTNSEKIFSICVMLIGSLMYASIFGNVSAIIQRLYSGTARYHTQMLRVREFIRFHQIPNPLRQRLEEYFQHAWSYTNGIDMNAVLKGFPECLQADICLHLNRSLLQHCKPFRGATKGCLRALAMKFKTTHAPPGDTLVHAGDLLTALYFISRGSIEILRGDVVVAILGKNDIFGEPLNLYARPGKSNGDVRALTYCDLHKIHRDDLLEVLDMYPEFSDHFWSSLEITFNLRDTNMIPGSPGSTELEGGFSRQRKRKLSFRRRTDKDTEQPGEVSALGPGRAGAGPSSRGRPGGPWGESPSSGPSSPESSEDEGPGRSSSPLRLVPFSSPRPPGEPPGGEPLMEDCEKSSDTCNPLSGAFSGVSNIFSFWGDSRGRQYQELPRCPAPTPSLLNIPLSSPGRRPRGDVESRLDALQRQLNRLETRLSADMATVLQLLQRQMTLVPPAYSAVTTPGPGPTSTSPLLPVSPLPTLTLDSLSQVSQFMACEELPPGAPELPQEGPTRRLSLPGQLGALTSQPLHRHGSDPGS

For `Cl.N[C@]1(c2ccc(C(F)(F)F)cc2)CCC[C@H](O)C1=O` [Compound 51, (2S,6S)-2-amino-6-hydroxy-2-(4-(trifluoromethyl)phenyl)cyclohexane-1-one hydrochloride], the IC50 (hERG potassium channel) was over 40 µM, the “AUC0-∞” value ([1]; C57 mouse brain tissue, 20 mg/kg p.o.) was 46324 ng·h/g and the concentration at 15 min ([1]; male, brain, po, C57 mouse, 10 mg/kg p.o., 15 min) was 5090 ng/g. The concentration at 10 min ([1]; male, brain, po, C57 mouse, 20 mg/kg p.o. (intragastrically), 10 min) was 23500 ng/g, the half-life ([1]; male, po, C57 mouse brain tissue, 20 mg/kg p.o.) was 1.36 h and the AUC0-t ([2]; 5 mg/kg i.v., plasma) was 19871 ngh/mL. For the same molecule, the “AUC0-∞” value ([2]; 5 mg/kg i.v., plasma) was 20688 ngh/mL, the F ([2]; 20 mg/kg p.o.) was 86% and the AUC0-t ([2]; 20 mg/kg p.o., plasma) was 68383 ngh/mL. The “AUC0-∞” value ([2]; 20 mg/kg p.o., plasma) was 70298 ngh/mL, the MRT [2, 4] was 6.15 h and the half-life [2, 4] was 5.6 h. The clearance ([2]; male, rat, plasma, iv, 5 mg/kg i.v.) was 4.03 mL/min/kg, the Vd ([2]; male, rat, plasma, iv, 5 mg/kg i.v., read-out: Vss) was 1.49 L/kg and the Cmax [2, 5] was 9350 ng/mL. The MRT [2, 5] was 6.21 h, the Tmax [2, 5] was 0.33 h and the half-life [2, 5] was 4.74 h. For the same molecule, the AUC0-t ([3]; 5 mg/kg i.v., plasma) was 6471 ngh/mL, the “AUC0-∞” value ([3]; 5 mg/kg i.v., plasma) was 6567 ngh/mL and the F ([3]; 20 mg/kg p.o. vs 5 mg/kg i.v.) was 68.0%. For the same molecule, the AUC0-t ([3]; 20 mg/kg p.o., plasma) was 17539 ngh/mL, the “AUC0-∞” value ([3]; 20 mg/kg p.o., plasma) was 17877 ngh/mL and the MRT [3, 6] was 1.23 h. The half-life [3, 6] was 1.79 h, the clearance ([3]; male, mouse, plasma, iv, 5 mg/kg i.v.) was 13.5 mL/min/kg and the Vd ([3]; male, mouse, plasma, iv, 5 mg/kg i.v., read-out: Vss) was 0.98 L/kg. It also gave a Cmax [3, 7] of 7520 ng/mL, an MRT [3, 7] of 3.59 h and a Tmax [3, 7] of 5 min. It also gave a half-life [3, 7] of 4.09 h.
